Experimental data published in EP1171107B1, “USE OF A PHARMACEUTICAL COMPOSITION IN THE MANUFACTURE OF A MEDICAMENT FOR THE TREATMENT OF PATHOLOGICAL CONDITIONS OF THE EYE CAUSED BY BACTERIA, VIRUSES, FUNGI, YEASTS AND PROTOZOA” (Dr. GERHARD MANN chem.-pharm. Fabrik GmbH, priority 1999, dated 2000).

Assays:
Assay type in all cases: cell-based
S.aureus = assay: Qualitative examination: enrichment of the inoculated test preparation in broth
Excerpt: (§1) Escherichia (E.coli) Staphylococcus (S.aureus) Streptococcus (Sc.) Pneumoniae Pseudomonas (P.aeruginosa) Staphylococcus (S. epidermidis) Haemophilus (H. influenzae)
(§2) Die verschiedenen Testkeime wurde jeweils aus einem Lyophilisat in NaCl-Peptonpuffer homogenisiert und auf Caseinpepton-Sojymehlpepton. (Caso-) Agar (Fa. bioMérieux; Art. Nr. 43019) bez. Kochblut-Agar (Fa. bioMérieux; Art. Nr. 43109) subkultiviert. Die Teststämme wurden vor Versuchsbeginn durch Erstellen eines biochemischen Profils mittels ATB/Vitek-System (Fa. bioMérieux, Nürtingen) auf Reinheit und Identität überprüft.
(§3) Die verschiedenen Testsubstanzen a. bis j. wurden jeweils zu 5 ml in sterile Zentrifugenröhrchen abgefüllt und mit ca. 10^5 KBE^*/ml (* = koloniebildende Einheiten) der oben genannten Testkeime kontaminiert. Pro Substanz wurde für jeden Testkeim und jede zu prüfende Testzeit ein separater Ansatz angeimpft, d.h.10 Testsubstanzen zu jeweils 7 Testzeiten und 6 Testkeime (= insgesamt 502 Testansätze). […] Der Überstand wurde dekantiert und das Pellet in 5 ml NaCl Peptonpuffer aufgenommen und resuspendiert. Die Suspension wurde erneut 10 Minuten bei 3000 rpm abzentrifugiert und 5 ml NaCl-Peptonpuffer aufgenommen und mittels Vortex homogenisiert.
(§4) Jeweils 2 ml der Testansätze wurden in 20 ml Caso-Bouillon oder für H. influenzae, in Fildes-Medium der Firma Becton Dickinson, ARt. Nr. 0349-739, angereichert und ebenfalls maximal 4 Tage bei 33± 2°C bebrütet. Ein negatives Ergebnis der Anreicherung belegt die Elimination der inokulierten Keime.

S.epidermidis [1] = assay: as above
Excerpt: as §1, §2, §3, §4

Sc. pneumoniae [2] = assay: as above
Excerpt: as §1, §2, §3, §4

E.coli [3] = assay: as above
Excerpt: as §1, §2, §3, §4

S.epidermidis [4] = assay: Quantitative germ count (re-isolation, surface method) after inoculating the test preparation; settings: Ausgangskeimzahl 2,1 x 10^5 KBE/ml
Excerpt: as §1, §2
(§5) Die Ausgangskeimzahl wurde im Oberflächenverfahren mit Hilfe eines Spiralplaters (Fa. Meintrup, Lähden) ermittelt und ist im einzelnen den Tabellen 1-12 zu entnehmen.
(§6) Die verschiedenen Testsubstanzen a. bis j. wurden jeweils zu 5 ml in sterile Zentrifugenröhrchen abgefüllt und mit ca. 10^5 KBE^*/ml (* = koloniebildende Einheiten) der oben genannten Testkeime kontaminiert. Pro Substanz wurde für jeden Testkeim und jede zu prüfende Testzeit ein separater Ansatz angeimpft, d.h.10 Testsubstanzen zu jeweils 7 Testzeiten und 6 Testkeime (= insgesamt 502 Testansätze). Nach 2, 6, 8, 24, 32, 48 und 72 Stunden wurde dann der jeweilige Testansatz 10 Minuten bei 3000 rpm abzentrifugiert. Der Überstand wurde dekantiert und das Pellet in 5 ml NaCl Peptonpuffer aufgenommen und resuspendiert. Die Suspension wurde erneut 10 Minuten bei 3000 rpm abzentrifugiert und 5 ml NaCl-Peptonpuffer aufgenommen und mittels Vortex homogenisiert.
(§7) Die anschließende Keimzahlbestimmung erfolgte im Oberflächenverfahren durch Ausspiralisieren eines […] Aliquots auf Caso-Agar bzw. für H. influenzae auf Kochblut-Agar. Die Platten wurden bei 33±2°C für max. 4 Tage bebrütet. Die Nachweisgrenze des Verfahrens liegt bei 100 KBE/ml.

P.aeruginosa [5] = assay: as above; settings: Ausgangskeimzahl 2,7 x 10^5 KBE/ml
Excerpt: as §1, §2, §5, §6, §7

H.influenzae [6] = assay: Qualitative examination: enrichment of the inoculated test preparation in broth
Excerpt: as §1, §2, §6, §4

P.aeruginosa [7] = assay: as above
Excerpt: as §1, §2, §6, §4

Sc. pneumoniae [8] = assay: Quantitative germ count (re-isolation, surface method) after inoculating the test preparation; settings: Ausgangskeimzahl 3,7 x 10^5 KBE/ml
Excerpt: as §1, §2, §5, §3, §7

H.influenzae [9] = assay: as above; settings: Ausgangskeimzahl 2,8 x 10^5 KBE/ml
Excerpt: as §1, §2, §5, §3, §7

E.coli [10] = assay: as above; settings: Ausgangskeimzahl 2,7 x 10^5 KBE/ml
Excerpt: as §1, §2, §5, §3, §7

## CCCCCCCCCCCC[N+](C)(C)Cc1ccccc1 [Benzalkoniumchlorid 0,005 Gew.-%, Benzododeciniumchlorid]
S.aureus; 2 h after inoculation
  Ergebnis der Reisolierung qualitiativ (+/-) nach Anreicherung: -
S.aureus; 4 h after inoculation
  Ergebnis der Reisolierung qualitiativ (+/-) nach Anreicherung: -
S.aureus; 6 h after inoculation
  Ergebnis der Reisolierung qualitiativ (+/-) nach Anreicherung: -
S.aureus; 8 h after inoculation
  Ergebnis der Reisolierung qualitiativ (+/-) nach Anreicherung: -
S.aureus; 24 h after inoculation
  Ergebnis der Reisolierung qualitiativ (+/-) nach Anreicherung: -
S.aureus; 32 h after inoculation
  Ergebnis der Reisolierung qualitiativ (+/-) nach Anreicherung: -
S.aureus; 48 h after inoculation
  Ergebnis der Reisolierung qualitiativ (+/-) nach Anreicherung: -
S.aureus; 72 h after inoculation
  Ergebnis der Reisolierung qualitiativ (+/-) nach Anreicherung: -
S.epidermidis [1]; 2 h after inoculation
  Ergebnis der Reisolierung qualitiativ (+/-) nach Anreicherung: -
S.epidermidis [1]; 4 h after inoculation
  Ergebnis der Reisolierung qualitiativ (+/-) nach Anreicherung: -
S.epidermidis [1]; 6 h after inoculation
  Ergebnis der Reisolierung qualitiativ (+/-) nach Anreicherung: -
S.epidermidis [1]; 8 h after inoculation
  Ergebnis der Reisolierung qualitiativ (+/-) nach Anreicherung: -
S.epidermidis [1]; 24 h after inoculation
  Ergebnis der Reisolierung qualitiativ (+/-) nach Anreicherung: -
S.epidermidis [1]; 32 h after inoculation
  Ergebnis der Reisolierung qualitiativ (+/-) nach Anreicherung: -
S.epidermidis [1]; 48 h after inoculation
  Ergebnis der Reisolierung qualitiativ (+/-) nach Anreicherung: -
S.epidermidis [1]; 72 h after inoculation
  Ergebnis der Reisolierung qualitiativ (+/-) nach Anreicherung: -
Sc. pneumoniae [2]; 2 h after inoculation
  Ergebnis der Reisolierung qualitiativ (+/-) nach Anreicherung: -
Sc. pneumoniae [2]; 4 h after inoculation
  Ergebnis der Reisolierung qualitiativ (+/-) nach Anreicherung: -
Sc. pneumoniae [2]; 6 h after inoculation
  Ergebnis der Reisolierung qualitiativ (+/-) nach Anreicherung: -
Sc. pneumoniae [2]; 8 h after inoculation
  Ergebnis der Reisolierung qualitiativ (+/-) nach Anreicherung: -
Sc. pneumoniae [2]; 24 h after inoculation
  Ergebnis der Reisolierung qualitiativ (+/-) nach Anreicherung: -
Sc. pneumoniae [2]; 32 h after inoculation
  Ergebnis der Reisolierung qualitiativ (+/-) nach Anreicherung: -
Sc. pneumoniae [2]; 48 h after inoculation
  Ergebnis der Reisolierung qualitiativ (+/-) nach Anreicherung: -
Sc. pneumoniae [2]; 72 h after inoculation
  Ergebnis der Reisolierung qualitiativ (+/-) nach Anreicherung: -
E.coli [3]; 2 h after inoculation
  Ergebnis der Reisolierung qualitiativ (+/-) nach Anreicherung: -
E.coli [3]; 4 h after inoculation
  Ergebnis der Reisolierung qualitiativ (+/-) nach Anreicherung: -
E.coli [3]; 6 h after inoculation
  Ergebnis der Reisolierung qualitiativ (+/-) nach Anreicherung: -
E.coli [3]; 8 h after inoculation
  Ergebnis der Reisolierung qualitiativ (+/-) nach Anreicherung: -
E.coli [3]; 24 h after inoculation
  Ergebnis der Reisolierung qualitiativ (+/-) nach Anreicherung: -
E.coli [3]; 32 h after inoculation
  Ergebnis der Reisolierung qualitiativ (+/-) nach Anreicherung: -
E.coli [3]; 48 h after inoculation
  Ergebnis der Reisolierung qualitiativ (+/-) nach Anreicherung: -
E.coli [3]; 72 h after inoculation
  Ergebnis der Reisolierung qualitiativ (+/-) nach Anreicherung: -
S.epidermidis [4]; 2 h after inoculation
  Ergebnis der Reisolierung (in KBE/ml): <100 KBE/ml
S.epidermidis [4]; 4 h after inoculation
  Ergebnis der Reisolierung (in KBE/ml): <100 KBE/ml
S.epidermidis [4]; 6 h after inoculation
  Ergebnis der Reisolierung (in KBE/ml): <100 KBE/ml
S.epidermidis [4]; 8 h after inoculation
  Ergebnis der Reisolierung (in KBE/ml): <100 KBE/ml
S.epidermidis [4]; 24 h after inoculation
  Ergebnis der Reisolierung (in KBE/ml): <100 KBE/ml
S.epidermidis [4]; 32 h after inoculation
  Ergebnis der Reisolierung (in KBE/ml): <100 KBE/ml
S.epidermidis [4]; 48 h after inoculation
  Ergebnis der Reisolierung (in KBE/ml): <100 KBE/ml
S.epidermidis [4]; 72 h after inoculation
  Ergebnis der Reisolierung (in KBE/ml): <100 KBE/ml
P.aeruginosa [5]; 2 h after inoculation
  Ergebnis der Reisolierung (in KBE/ml): <100 KBE/ml
P.aeruginosa [5]; 4 h after inoculation
  Ergebnis der Reisolierung (in KBE/ml): <100 KBE/ml
P.aeruginosa [5]; 6 h after inoculation
  Ergebnis der Reisolierung (in KBE/ml): <100 KBE/ml
P.aeruginosa [5]; 8 h after inoculation
  Ergebnis der Reisolierung (in KBE/ml): <100 KBE/ml
P.aeruginosa [5]; 24 h after inoculation
  Ergebnis der Reisolierung (in KBE/ml): <100 KBE/ml
P.aeruginosa [5]; 32 h after inoculation
  Ergebnis der Reisolierung (in KBE/ml): <100 KBE/ml
P.aeruginosa [5]; 48 h after inoculation
  Ergebnis der Reisolierung (in KBE/ml): <100 KBE/ml
P.aeruginosa [5]; 72 h after inoculation
  Ergebnis der Reisolierung (in KBE/ml): <100 KBE/ml
H.influenzae [6]; 2 h after inoculation
  Ergebnis der Reisolierung qualitiativ (+/-) nach Anreicherung: -
H.influenzae [6]; 4 h after inoculation
  Ergebnis der Reisolierung qualitiativ (+/-) nach Anreicherung: -
H.influenzae [6]; 6 h after inoculation
  Ergebnis der Reisolierung qualitiativ (+/-) nach Anreicherung: -
H.influenzae [6]; 8 h after inoculation
  Ergebnis der Reisolierung qualitiativ (+/-) nach Anreicherung: -
H.influenzae [6]; 24 h after inoculation
  Ergebnis der Reisolierung qualitiativ (+/-) nach Anreicherung: -
H.influenzae [6]; 32 h after inoculation
  Ergebnis der Reisolierung qualitiativ (+/-) nach Anreicherung: -
H.influenzae [6]; 48 h after inoculation
  Ergebnis der Reisolierung qualitiativ (+/-) nach Anreicherung: -
H.influenzae [6]; 72 h after inoculation
  Ergebnis der Reisolierung qualitiativ (+/-) nach Anreicherung: -
P.aeruginosa [7]; 2 h after inoculation
  Ergebnis der Reisolierung qualitiativ (+/-) nach Anreicherung: -
P.aeruginosa [7]; 4 h after inoculation
  Ergebnis der Reisolierung qualitiativ (+/-) nach Anreicherung: -
P.aeruginosa [7]; 6 h after inoculation
  Ergebnis der Reisolierung qualitiativ (+/-) nach Anreicherung: -
P.aeruginosa [7]; 8 h after inoculation
  Ergebnis der Reisolierung qualitiativ (+/-) nach Anreicherung: -
P.aeruginosa [7]; 24 h after inoculation
  Ergebnis der Reisolierung qualitiativ (+/-) nach Anreicherung: -
P.aeruginosa [7]; 32 h after inoculation
  Ergebnis der Reisolierung qualitiativ (+/-) nach Anreicherung: -
P.aeruginosa [7]; 48 h after inoculation
  Ergebnis der Reisolierung qualitiativ (+/-) nach Anreicherung: -
P.aeruginosa [7]; 72 h after inoculation
  Ergebnis der Reisolierung qualitiativ (+/-) nach Anreicherung: -
Sc. pneumoniae [8]; 2 h after inoculation
  Ergebnis der Reisolierung (in KBE/ml): <100 KBE/ml
Sc. pneumoniae [8]; 4 h after inoculation
  Ergebnis der Reisolierung (in KBE/ml): <100 KBE/ml
Sc. pneumoniae [8]; 6 h after inoculation
  Ergebnis der Reisolierung (in KBE/ml): <100 KBE/ml
Sc. pneumoniae [8]; 8 h after inoculation
  Ergebnis der Reisolierung (in KBE/ml): <100 KBE/ml
Sc. pneumoniae [8]; 24 h after inoculation
  Ergebnis der Reisolierung (in KBE/ml): <100 KBE/ml
Sc. pneumoniae [8]; 32 h after inoculation
  Ergebnis der Reisolierung (in KBE/ml): <100 KBE/ml
Sc. pneumoniae [8]; 48 h after inoculation
  Ergebnis der Reisolierung (in KBE/ml): <100 KBE/ml
Sc. pneumoniae [8]; 72 h after inoculation
  Ergebnis der Reisolierung (in KBE/ml): <100 KBE/ml
H.influenzae [9]; 2 h after inoculation
  Ergebnis der Reisolierung (in KBE/ml): <100 KBE/ml
H.influenzae [9]; 4 h after inoculation
  Ergebnis der Reisolierung (in KBE/ml): <100 KBE/ml
H.influenzae [9]; 6 h after inoculation
  Ergebnis der Reisolierung (in KBE/ml): <100 KBE/ml
H.influenzae [9]; 8 h after inoculation
  Ergebnis der Reisolierung (in KBE/ml): <100 KBE/ml
H.influenzae [9]; 24 h after inoculation
  Ergebnis der Reisolierung (in KBE/ml): <100 KBE/ml
H.influenzae [9]; 32 h after inoculation
  Ergebnis der Reisolierung (in KBE/ml): <100 KBE/ml
H.influenzae [9]; 48 h after inoculation
  Ergebnis der Reisolierung (in KBE/ml): <100 KBE/ml
H.influenzae [9]; 72 h after inoculation
  Ergebnis der Reisolierung (in KBE/ml): <100 KBE/ml
E.coli [10]; 2 h after inoculation
  Ergebnis der Reisolierung (in KBE/ml): <100 KBE/ml
E.coli [10]; 4 h after inoculation
  Ergebnis der Reisolierung (in KBE/ml): <100 KBE/ml
E.coli [10]; 6 h after inoculation
  Ergebnis der Reisolierung (in KBE/ml): <100 KBE/ml
E.coli [10]; 8 h after inoculation
  Ergebnis der Reisolierung (in KBE/ml): <100 KBE/ml
E.coli [10]; 24 h after inoculation
  Ergebnis der Reisolierung (in KBE/ml): <100 KBE/ml
E.coli [10]; 32 h after inoculation
  Ergebnis der Reisolierung (in KBE/ml): <100 KBE/ml
E.coli [10]; 48 h after inoculation
  Ergebnis der Reisolierung (in KBE/ml): <100 KBE/ml
E.coli [10]; 72 h after inoculation
  Ergebnis der Reisolierung (in KBE/ml): <100 KBE/ml
